Results as given in paper PMC11045757, “Group 3 medulloblastoma transcriptional networks collapse under domain specific EP300/CBP inhibition” (Nature Communications, 2024).

Test system: 460 barcoded cancer cell lines
Assay: PRISM pooled barcoded cancer cell line growth screen, 10-point dose-response, 5 days, AUC
Format: cell-based
Design: scale not given here
Source text: Several small molecule inhibitors of distinct protein domains of EP300/CBP are available, though the majority target the histone acetyltransferase domain (HAT) or bromodomain (BRD)[5],[10],[21],[22]. […] We used these tools to investigate the relative contribution of the EP300/CBP BRD or HAT domain to tumor cell growth (Fig. 1a). To do so, we performed 10-point, dose-response growth assays using mixed pools of 460 barcoded cancer cell lines, over five days of treatment in vitro[33],[34]. Growth was measured using an area-under-the-curve (AUC) approach (Supplementary Table 1, Supplementary Fig. 1a). […] Given potential differences in compound penetration and solubility, and to compare the relative cell line and tumor-specific effects of these two compounds in assays performed non-simultaneously, we performed a median normalization of each dataset (Supplementary Table 2).

CO[C@H]1CC[C@H](n2c([C@@H]3CCCC(=O)N3c3ccc(F)c(F)c3)nc3cc(-c4c(C)noc4C)ccc32)CC1 [CCS1477]
AUC (MG63, Osteosarcoma): 1 | AUC (MHHNB11, Neuroblastoma): 0.7003 | AUC (MIAPACA2, Pancreatic Cancer): 0.9396 | AUC (MKN1, Gastric Cancer): 0.9606 | AUC (MKN7, Gastric Cancer): 0.7767 | AUC (MKN45, Gastric Cancer): 0.856 | AUC (MOLM13, AML): 0.3814 | AUC (MOLM16, AML): 0.9868 | AUC (MOLT3, T-acute leukemia): 0.9924 | AUC (MOLT16, T-acute leukemia): 0.8465 | AUC (MON, Rhabdoid): 0.6598 | AUC (NB1, Neuroblastoma): 0.5737 | AUC (NB4, AML): 1 | AUC (NCIH23, Lung Cancer): 0.9771 | AUC (NCIH28, Lung Cancer): 0.9928 | AUC (NCIH82, Lung Cancer): 0.997 | AUC (NCIH196, Lung Cancer): 0.842 | AUC (NCIH211, Lung Cancer): 0.8687 | AUC (NCIH226, Lung Cancer): 0.9874 | AUC (NCIH292, Lung Cancer): 0.9319 | AUC (NCIH322, Lung Cancer): 0.9929 | AUC (NCIH358, Lung Cancer): 1 | AUC (NCIH441, Lung Cancer): 0.7826 | AUC (NCIH460, Lung Cancer): 0.9935 | AUC (NCIH520, Lung Cancer): 0.9951 | AUC (NCIH524, Lung Cancer): 1 | AUC (NCIH596, Lung Cancer): 0.9011 | AUC (NCIH647, Lung Cancer): 0.8544 | AUC (NCIH650, Lung Cancer): 0.6419 | AUC (NCIH661, Lung Cancer): 1 | AUC (NCIH747, Colon/Colorectal Cancer): 0.9981 | AUC (NCIH841, Lung Cancer): 0.9721 | AUC (NCIH1048, Lung Cancer): 1 | AUC (NCIH1299, Lung Cancer): 0.9947 | AUC (NCIH1341, Lung Cancer): 0.9136 | AUC (NCIH1373, Lung Cancer): 0.9741 | AUC (NCIH1437, Lung Cancer): 0.9932 | AUC (NCIH1568, Lung Cancer): 0.9412 | AUC (NCIH1573, Lung Cancer): 1 | AUC (NCIH1581, Lung Cancer): 0.9081 | AUC (NCIH1648, Lung Cancer): 0.7802 | AUC (NCIH1792, Lung Cancer): 0.8352 | AUC (NCIH1793, Lung Cancer): 0.9609 | AUC (NCIH1838, Lung Cancer): 0.9639 | AUC (NCIH1930, Lung Cancer): 0.9338 | AUC (NCIH1944, Lung Cancer): 0.9624 | AUC (NCIH1975, Lung Cancer): 0.9927 | AUC (NCIH2004RT, Rhabdoid): 1 | AUC (NCIH2052, Lung Cancer): 0.9941 | AUC (NCIH2122, Lung Cancer): 0.9334 | AUC (NCIH2170, Lung Cancer): 0.8755 | AUC (NCIH2172, Lung Cancer): 0.8463 | AUC (NCIH2196, Lung Cancer): 0.8725 | AUC (NCIH2228, Lung Cancer): 1 | AUC (NCIH2347, Lung Cancer): 0.9989 | AUC (NCIH2444, Lung Cancer): 1 | AUC (NCO2, CML): 0.9122 | AUC (NIHOVCAR3, Ovarian Cancer): 0.9967 | AUC (NUDHL1, Lymphoma): 0.5218 | AUC (NUGC3, Gastric Cancer): 0.905 | AUC (OAW42, Ovarian Cancer): 0.9968 | AUC (OC314, Ovarian Cancer): 0.7634 | AUC (OC316, Ovarian Cancer): 0.664 | AUC (OCIAML2, AML): 0.5324 | AUC (OCIAML3, AML): 0.8075 | AUC (OCILY19, Lymphoma): 0.7248 | AUC (OCILY132, T-cell lymphoma): 0.9273 | AUC (OCIM1, AML): 0.8977 | AUC (OE19, Esophageal Cancer): 0.9508 | AUC (OE21, Esophageal Cancer): 0.9943 | AUC (ONCODG1, Ovarian Cancer): 0.9442 | AUC (ONS76, Medulloblastoma): 0.6602 | AUC (OSRC2, Kidney Cancer): 1 | AUC (OV56, Ovarian Cancer): 1 | AUC (OVCAR8, Ovarian Cancer): 0.8858 | AUC (OVISE, Ovarian Cancer): 0.9803 | AUC (OVK18, Ovarian Cancer): 0.5969 | AUC (OVKATE, Ovarian Cancer): 0.8791 | AUC (OVTOKO, Ovarian Cancer): 0.9328 | AUC (PANC0203, Pancreatic Cancer): 0.9609 | AUC (PANC0327, Pancreatic Cancer): 1 | AUC (PANC0403, Pancreatic Cancer): 0.9938 | AUC (PANC0504, Pancreatic Cancer): 0.8732 | AUC (PANC0813, Pancreatic Cancer): 1 | AUC (PATU8902, Pancreatic Cancer): 0.9744 | AUC (PC3, Prostate Cancer): 1 | AUC (PECAPJ15, Head and Neck Cancer): 0.9295 | AUC (PF382, T-acute leukemia): 0.7571 | AUC (PK1, Pancreatic Cancer): 0.9937 | AUC (PK59, Pancreatic Cancer): 1 | AUC (PSN1, Pancreatic Cancer): 0.7783 | AUC (RCM1, Colon/Colorectal Cancer): 0.9586 | AUC (RD, Rhabdomyosarcoma): 0.8954 | AUC (RDES, Ewing Sarcoma): 0.5629 | AUC (RERFLCAI, Lung Cancer): 0.937 | AUC (RERFLCKJ, Lung Cancer): 0.8827 | AUC (RH4, Rhabdomyosarcoma): 0.8163 | AUC (RH28, Rhabdomyosarcoma): 0.8877 | AUC (RH36, Rhabdomyosarcoma): 0.9558 | AUC (RHJT, Rhabdomyosarcoma): 0.8764 | AUC (RI1, B-cell Lymphoma): 0.7034 | AUC (RL952, Endometrial/Uterine Cancer): 0.9936 | AUC (RL, B-cell Lymphoma): 0.8905 | AUC (RPMI8402, T-acute leukemia): 0.8153 | AUC (RT4, Bladder Cancer): 0.9721 | AUC (RVH421, Melanoma): 0.975 | AUC (S117, Thyroid Sarcoma): 0.8697 | AUC (SAOS2, Osteosarcoma): 0.6766 | AUC (SCABER, Bladder Cancer): 0.9263 | AUC (SCC9, Head and Neck Cancer): 0.7896 | AUC (SCC25, Head and Neck Cancer): 0.9849 | AUC (SCLC21H, Lung Cancer): 0.8733 | AUC (SEM, B-cell Leukemia): 0.851 | AUC (SF539, Glioma): 0.9912 | AUC (SH4, Melanoma): 0.9252 | AUC (SH10TC, Gastric Cancer): 0.7637 | AUC (SHP77, Lung Cancer): 0.791 | AUC (SIMA, Neuroblastoma): 0.8003 | AUC (SJSA1, Osteosarcoma): 0.881 | AUC (SKES1, Ewing Sarcoma): 0.7015 | AUC (SKHEP1, Liver Cancer): 0.9726 | AUC (SKM1, AML): 0.6213 | AUC (SKMEL30, Melanoma): 0.7984 | AUC (SKMES1, Lung Cancer): 0.9581 | AUC (SKMM2, Myeloma): 0.9554 | AUC (SKNAS, Neuroblastoma): 0.9789 | AUC (SKNBE2, Neuroblastoma): 0.6208 | AUC (SKNDZ, Neuroblastoma): 0.8143 | AUC (SKNEP1, Ewing Sarcoma): 0.8025 | AUC (SKNMC, Ewing Sarcoma): 0.8546 | AUC (SKNO1, AML): 0.6432 | AUC (SKNSH, Neuroblastoma): 0.8336 | AUC (SKOV3, Ovarian Cancer): 0.9975 | AUC (SKUT1, Leiomyosarcoma): 0.8326 | AUC (SNU1, Gastric Cancer): 0.9131 | AUC (SNU46, Head and Neck Cancer): 0.9224 | AUC (SNU61, Colon/Colorectal Cancer): 0.9346 | AUC (SNU81, Colon/Colorectal Cancer): 1 | AUC (SNU182, Liver Cancer): 0.7735 | AUC (SNU201, Glioblastoma): 0.712 | AUC (SNU213, Pancreatic Cancer): 0.9853 | AUC (SNU216, Gastric Cancer): 0.9769 | AUC (SNU245, Bile Duct Cancer): 0.8366 | AUC (SNU407, Colon/Colorectal Cancer): 0.9923 | AUC (SNU423, Liver Cancer): 0.9162 | AUC (SNU449, Liver Cancer): 0.9509 | AUC (SNU466, Glioblastoma): 0.9993 | AUC (SNU478, Bile Duct Cancer): 0.6392 | AUC (SNU601, Gastric Cancer): 0.8941 | AUC (SNU668, Gastric Cancer): 0.9591 | AUC (SNU685, Endometrial/Uterine Cancer): 0.9601 | AUC (SNU719, Gastric Cancer): 0.914 | AUC (SNU869, Bile Duct Cancer): 0.9994 | AUC (SNU878, Liver Cancer): 0.7965 | AUC (SNU886, Liver Cancer): 1 | AUC (SNU1041, Head and Neck Cancer): 0.8828 | AUC (SNU1066, Head and Neck Cancer): 1 | AUC (SNU1076, Head and Neck Cancer): 0.8929 | AUC (SNU1077, Endometrial/Uterine Cancer): 0.9948 | AUC (SNU1079, Bile Duct Cancer): 0.994 | AUC (SNU1105, Glioblastoma): 0.9872 | AUC (SNU1196, Bile Duct Cancer): 0.8873 | AUC (SNU1214, Head and Neck Cancer): 0.7307 | AUC (SNUC2A, Colon/Colorectal Cancer): 0.8028 | AUC (SNUC4, Colon/Colorectal Cancer): 0.894 | AUC (SQ1, Lung Cancer): 0.8902 | AUC (SR786, Lymphoma): 0.7905 | AUC (STM9101, Rhabdoid): 0.9061 | AUC (SUDHL8, Lymphoma): 0.8983 | AUC (SW48, Colon/Colorectal Cancer): 1 | AUC (SW579, Thyroid Cancer): 0.9957 | AUC (SW620, Colon/Colorectal Cancer): 1 | AUC (SW780, Bladder Cancer): 0.8694 | AUC (SW837, Colon/Colorectal Cancer): 0.8996 | AUC (SW900, Lung Cancer): 0.9538 | AUC (SW948, Colon/Colorectal Cancer): 0.8065 | AUC (SW1088, Glioma): 0.9904 | AUC (SW1116, Colon/Colorectal Cancer): 0.8985 | AUC (SW1463, Colon/Colorectal Cancer): 0.8864 | AUC (SW1710, Bladder Cancer): 1 | AUC (T3M10, Lung Cancer): 0.9279 | AUC (T24, Bladder Cancer): 0.9961 | AUC (T47D, Breast Cancer): 0.8791 | AUC (TALL1, T-acute leukemia): 0.9864 | AUC (TC71, Ewing Sarcoma): 0.7599 | AUC (TC106, Ewing Sarcoma): 1 | AUC (TC205, Ewing Sarcoma): 0.7558 | AUC (TCCPAN2, Pancreatic Cancer): 0.9414 | AUC (TCCSUP, Bladder Cancer): 0.982 | AUC (TE1, Esophageal Cancer): 1 | AUC (TE4, Esophageal Cancer): 1 | AUC (TE6, Esophageal Cancer): 0.9744 | AUC (TE9, Esophageal Cancer): 0.9981 | AUC (TE10, Esophageal Cancer): 0.7792 | AUC (TE11, Esophageal Cancer): 0.9258 | AUC (TE15, Esophageal Cancer): 0.8586 | AUC (TE617T, Rhabdomyosarcoma): 0.9947 | AUC (TF1, AML): 0.6668 | AUC (TM87, Rhabdoid): 0.9581 | AUC (TOLEDO, Lymphoma): 0.9697 | AUC (TOV21G, Ovarian Cancer): 0.9924 | AUC (TT2609C02, Thyroid Cancer): 0.8798 | AUC (TT, Thyroid Cancer): 0.7695 | AUC (TTC442, Rhabdomyosarcoma): 0.8425 | AUC (TTC549, Rhabdoid): 0.9131 | AUC (TTC642, Rhabdoid): 0.7844 | AUC (TTC1240, Rhabdoid): 0.4497 | AUC (TYKNU, Ovarian Cancer): 0.8502 | AUC (U2OS, Osteosarcoma): 0.8623 | AUC (U266B1, Myeloma): 0.9866 | AUC (U937, AML): 0.7957 | AUC (UACC62, Melanoma): 0.8964 | AUC (UACC257, Melanoma): 0.9638 | AUC (UBLC1, Bladder Cancer): 0.695 | AUC (UMUC1, Bladder Cancer): 0.8319 | AUC (UW228, Medulloblastoma): 0.9704 | AUC (VMCUB1, Bladder Cancer): 0.7437 | AUC (VMRCRCW, Kidney Cancer): 0.9159 | AUC (VMRCRCZ, Kidney Cancer): 0.8277 | AUC (WM88, Melanoma): 0.9177 | AUC (WM793, Melanoma): 0.9978 | AUC (WM983B, Melanoma): 0.8412 | AUC (YAPC, Pancreatic Cancer): 1 | AUC (YD10B, Head and Neck Cancer): 0.8679 | AUC (YD15, Head and Neck Cancer): 0.7679 | AUC (YD38, Head and Neck Cancer): 0.6898 | AUC (YH13, Glioblastoma): 0.9673
